Results reported in a melting point compilation (Tetko et al.; mined from patent text by program, amines drawn as free bases though some values may be those of a salt).

SMILES	melting point [°C]
CCn1c2ccccc2c2cc(C=Cc3ccc([N+](=O)[O-])cc3)ccc21	168
COC(=O)c1cc2c3cc(Cl)ccc3n(C)c2s1	188 to 190
CCCN(CCC)Cc1cnc(-c2ncn3c2[C@@H]2CCN2C(=O)c2ccccc2-3)o1	132 to 134
C[C@@H](Cn1ncc2ccc(OCCO)c(Br)c21)NC(=O)OCc1ccccc1	97 to 99
NC(=NCCCc1c[nH]cn1)N(CCN(Cc1ccc(Cl)cc1)c1ccccn1)C(=O)c1ccccc1	166 to 167
O=C(O)COCc1cc(Br)ccc1C(=O)O	194 to 196
CCC(CC)n1nnc2cc(C(F)(F)F)cc([N+](=O)[O-])c21	42 to 45
COC(=O)COc1ccc(NC(=O)CO)cc1	148 to 150
Cc1ccccc1C=C1CCc2c1oc1ccc(C#N)cc1c2=O	260 to 262
O=C(NC1CCN(CCCc2ccc(F)cc2)C1)C12CC3CC(CC(C3)C1)C2 (configuration not stated)	114 to 115
Cn1c(OCC(CO)CO)nc2c(NC(=O)c3ccccc3)ncnc21	151 to 153
COC(=O)c1cc(I)ccc1Nc1ccccc1C(=O)O	230 to 232
S=C(Nc1ccc(Cl)cc1)NC1CC2C3CC4C2C4C13 (configuration not stated)	168 to 170
CC1CN2N=C(c3cccc(C(F)(F)F)c3)C=CC2=N1 (configuration not stated)	86 to 90
O=C1CC(CO)C(c2ccc(N3CCOCC3)c(Cl)c2)=NN1 (configuration not stated)	173 to 175
CCOc1c(-c2ccc(O)c(OC)c2)oc2cc(OC)cc(O)c2c1=O	168 to 169
C#CC1(OCc2ccccc2F)CCN(C(C)=O)CC1	59 to 62
CCOC(=O)CNCC1CC2c3cccc4[nH]cc(c34)CC2N(C)C1 (configuration not stated)	174 to 176
O=C(O)CSc1nc(-c2ccc(Cl)cc2)no1	112 to 114
COc1cc2ccc(CC(=S)N3CCOCC3)cc2cc1OC	158 to 161

SMILES	melting point [°C]
O=C(Nc1cc2cccnc2cc1N1CCCCC1)c1csc2cncnc12	> 300
CC(C)(O)CCCCCc1cccc(C=Cc2cc(CO)cc(CO)c2)c1	108 to 109
CN1C2CCC1CN(c1ccc(-c3ccccc3)nn1)C2	151
Nc1nc(=O)n(C2CC(O)C(CO)O2)cc1F (configuration not stated)	199 to 201
Nc1cccnc1Nc1ccccc1C(=O)c1ccc(F)cc1	122
CCOCc1nc2c(N)nc3ccccc3c2n1CC(=O)CC	187 to 188
Cc1cc(-c2ccc(-c3ccco3)cc2)cc(S(N)(=O)=O)c1-n1ccc(C(F)(F)F)n1	87 to 89
N#CC(CCCOc1ccccc1)(Cn1cncn1)c1ccccc1 (configuration not stated)	85 to 86
Cc1cc(Nc2cc(-c3cccc(N4CCc5c(cc6n5CCCC6)C4=O)c3CO)cn(C)c2=O)n[nH]1	199 to 200
CC(=O)Nc1cc(C)nn1C(C)(C)C	118 to 120
COC(=O)C(c1ccccc1)N1CCN(c2ccc(NC(=O)c3ccccc3-c3ccccc3)cc2)CC1 (configuration not stated)	125
CCCCOC1C=CC(=O)N1S(=O)(=O)c1cccc(C(F)(F)F)c1 (configuration not stated)	42 to 43
c1cc2c3c(c1)nc(N1CCC(c4c[nH]cn4)CC1)n3CCC2	250 to 255
CCN(CC)c1ccc(NC(=O)c2ccc(-c3[nH]nc4c3C(=O)c3c(NC(=O)NN5CCOCC5)cccc3-4)s2)cc1	198 to 199
COc1cccc(OC)c1C(=O)P1(=O)Oc2ccccc2-c2ccccc21 (configuration not stated)	96 to 98
Cc1ccc(OCc2ccccc2)c(C(CCN2CC3CC3(C)C2)c2ccccc2)c1 (configuration not stated)	74.9 to 76
CCc1cc2c(s1)-n1nc(C(=O)O)nc1CN=C2c1ccccc1Cl	134 to 136
CCOC(=O)c1ncn2c1CN(C)C(=O)c1cnccc1-2	205 to 206
CCCCc1nc2cccc(C(=O)OCOC(=O)C(C)(C)C)c2n1Cc1ccc(-c2ccccc2-c2nnn[nH]2)cc1	102 to 105

More lines, now with the values ahead:

melting point [°C]	SMILES
138 to 145	COc1ccc(CNc2ccncc2)c2c1OCC2C (configuration not stated)
128 to 129	COc1c(SC)ccc(C(=O)C(C#N)C(=O)C2CC2)c1Br (configuration not stated)
133	COc1cccc2c1CCc1ccn(CCNC(C)=O)c1-2
68 to 69	COc1cccc(-c2noc3cc(F)ccc23)c1
108 to 110	CCCc1c(OCCSc2nc3ccc(C(=O)O)cc3[nH]2)ccc(C(C)=O)c1O
148 to 151	CCC(CC)(CO)NC(N)=S
76 to 77	CC(=O)NCc1ccc(Cl)nc1
153 to 154	COc1ccc([C@@H]2Sc3ccccc3N(CCN(C)C)C(=O)[C@@H]2OC(=O)Nc2ccc(F)cc2)cc1 (relative stereo)
113 to 114	COc1ccccc1CN1CCC(=O)C(C2c3ccccc3C=Cc3ccccc32)C1 (configuration not stated)
213 to 215	CSc1nc(NN2CCCCC2)c2ncn(C3OC(CCl)C(O)C3O)c2n1 (configuration not stated)
179 to 181	Cc1nn(C)c(C)c1CNC(=O)c1ccnc(N2CCN(Cc3ccc(F)cc3)C2=O)c1
126 to 127	O=c1oc(-c2cccc(OCc3ccccc3)c2)cc(O)c1SCCc1ccccc1
208 to 209	CCOP(=O)(Cc1ccc(NC(=O)/C=C/c2cnn(C)c2-c2ccc(F)cc2)cc1)OCC
185 to 186	O=c1c(CCCc2nc3ccccc3s2)cc2cccnc2n1-c1cccc([N+](=O)[O-])c1
214 to 217	CC(C)c1ccc(N(Cc2ccc(N(C)C)cc2)C(=O)C2CCCc3ccc(O)cc32)cc1 (configuration not stated)
139	COC(=O)C1=C(C)NC(C)=C(C(=O)OCC(C)=O)C1c1cccc([N+](=O)[O-])c1 (configuration not stated)
101	N#Cc1ccccc1S(=O)(=O)N1CCCC1c1ccc(F)cc1 (racemic)

melting point [°C]	SMILES
122 to 124	NS(=O)(=O)c1cc2cc(N(Cc3ccccc3)Cc3ccccc3)ccc2s1
159 to 160	O=C(O)COc1ccc(CCCS(=O)(=O)c2ccc(Cl)cc2)cc1
248 to 255	CCn1nc(-c2cnc3[nH]cc(C(=O)N[C@H](C)C(=O)N4CC(C#N)C4)c3n2)c2ccc(Cl)cc21
112 to 114	CC1CN(C2=Nc3ccccc3Oc3ccccc32)CC(C)N1 (configuration not stated)
> 250	COc1ccc2ncc(C#N)c(Nc3ccc4cn[nH]c4c3)c2c1
206	O=C(CS(=O)Cc1ccc2c(c1)OCO2)NO (configuration not stated)
114 to 116	Cc1nc2c(-c3cccc(C(F)(F)F)c3)cncn2n1
114 to 116	Cc1cc(SC(C)c2ccc3cn(-c4ccc(C(F)(F)F)cc4)nc3c2)ccc1OC(C)(C)C(=O)O (racemic)
210	CC(C)(C)C1=NCC(O)CN1 (configuration not stated)
80 to 81	CCc1c(CCNC(=O)C(F)(F)F)ccc(OC)c1OC
186 to 191	Cc1sc(C(=O)NN)c(S(N)(=O)=O)c1C#N
166 to 167	O=C(O)Cc1c(-c2ccccc2)nn(-c2cccc(C(F)(F)F)c2)c1-c1ccccc1
126	COc1ccc(N2CCN(c3ccccn3)CC2)cc1
176	N#Cc1cnn2c(C(F)(F)F)cc(-c3ccc(C(F)(F)F)cc3)nc12
123 to 125	CC1=CC(OC(=O)c2ccc(O)cc2)C(O)C(C)(C)CC1=O (configuration not stated)
186	COc1ccccc1CC1NC(=O)NC1=O (configuration not stated)
